Among the data in ChEMBL document CHEMBL3507680, “University of Dundee, Gates Library screen for HepG2 cell viability” are cytotoxicity values, retold here.

The nature of this data set: Human HepG2 cell viability assay in 384 well format. More on the design: dose 125 nL, time 70.5 hour; cytotoxicity at 70.5 h: concentration not given beside the values. As to conditions: HepG2 cells, read-out: Inhibition. Format: toxicity, cell-based.
Consider `COc1cc(C(=O)NCCS(=O)(=O)N(C)C)c2ccccc2n1`, for which the cytotoxicity at 70.5 h is 1.37%.
Under `O=C(C1CCOCC1)N1CCC2(CC1)CN(c1ccsc1)C(=O)CO2` stands -6.23%.
Regarding `CCOc1nc2cccnc2n(CC(=O)NCCOC)c1=O`, the cytotoxicity at 70.5 h was -14.5%.
For `Cc1nn(C)c(Cl)c1C1CCCN1Cc1nnc(C2CC2)n1C` (stereo not given), the cytotoxicity at 70.5 h is -0.0718%.
Under `O=C(c1cc(=O)n(-c2ccccc2)[nH]1)N1CCOCC(O)C1` (stereo not given) stands 22.9%; under `O=C(NCCn1ccnc1)c1cccc(Br)c1`, -13%; under `COCCN1CCc2cc(C(=O)N(C)C)c(NCC3CC3)nc2CC1`, -4.26%.
Under `CC(C)CCN(C(=O)c1cccc(NC(N)=O)c1)C1CC1` stands -17.2%; under `COc1c(CNC2CCOc3c(Cl)cccc32)c(C)nn1C` (stereo not given), 12.2%; under `CNc1nc(CNC(=O)Nc2cccc(F)c2)cs1`, -6.65%.
As for `Cc1cc(C2CCCN2Cc2ccc(S(=O)(=O)N3CCCC3)o2)on1` (stereo not given), the cytotoxicity at 70.5 h is -102%.
With `CCNc1c(NC(=O)NC(C)C)c(=O)oc2ccccc12` the figure was -8.94%; with `O=C(c1c2c(NCC3CC3)ncnc2n2ccccc12)N1CCOCC1`, -1.89%; with `COc1ccc(CN2CCC3(CC2)NC(=O)CC3c2cnn(C)c2)cc1` (stereo not given), -8.08%.
Under `Nc1ncc(C(=O)N2CCN(c3nccs3)CC2)cc1Cl` stands -4.3%.
With `O=C(c1ccc[nH]1)N1CCOCC12CCCC2` the figure was 30.2%.
For the compound `O=c1[nH]cc(N2CCCCCC2)c(=O)[nH]1`, the cytotoxicity at 70.5 h came out at 9.28%.
With `CN(CCOc1cccc(S(C)(=O)=O)c1)c1ccccc1` the figure was -2.26%; with `CS(=O)(=O)N1CCCN(C(=O)c2ccc(Cn3ccccc3=O)o2)CC1`, -7.8%.
Take `O=c1[nH]c2ccccc2c2c1CCO2`: the cytotoxicity at 70.5 h was -2.59%.
Under `CC(C)c1cc(C(=O)N2CC[C@@H](c3ccc4c(c3)OCO4)[C@H](O)C2)[nH]n1` stands 3.33%.
Under `CC(NC(=O)NCCCn1cccn1)c1ccc2c(c1)NC(=O)CO2` (stereo not given) stands 46.4%; under `Cc1ccc(NCc2cccc3cn[nH]c23)cc1OC1CCOC1` (stereo not given), -0.654%.
Under `CNCc1cnc(Nc2ccccc2)nc1` stands -5.59%; under `Cn1ccnc(Nc2ccc3c(c2)CCN3C(=O)c2ccoc2)c1=O`, -10%; under `Cc1noc(C)c1CN(C)C(=O)Cn1c(=O)n(C)c2ccccc21`, -15.9%.
For `CC(NC(=O)c1cccs1)C(=O)NCc1ccccc1CN1CCCC1` (stereo not given), the cytotoxicity at 70.5 h was -2%.
Take `CC(=O)N1CCCc2cc(Nc3nccn(C)c3=O)ccc21`: the cytotoxicity at 70.5 h is -7.29%.
With `O=S(=O)(C1CC1)N1CCC2(CCCN(Cc3ccccn3)C2)CC1` the figure was -5.17%; with `CCCc1ccc(C(C)Nc2ncnc3c2CCNC3)cc1` (stereo not given), -2.09%; with `CSCC[C@H]1CN2CCC[C@H]2CN1Cc1coc2ccc(C)cc2c1=O`, 1.94%.
Regarding `COc1cccc(C(=O)N2CCc3nc(C4CCCN4)ncc3C2)c1` (stereo not given), the cytotoxicity at 70.5 h was -1.65%.
Under `COc1cccc(N2CCC(N3CCOC(C(F)(F)F)C3)CC2)c1` (stereo not given) stands -18.1%; under `CCn1ccnc1CN1CCN(c2ncnc3ccsc23)CC1C` (stereo not given), 0.44%; under `NC(Cc1nc(-c2ccccc2)no1)c1ccccc1` (stereo not given), -6.63%.
Under `COc1ccc2[nH]cc(-c3ccnc(NC4CCCC4)n3)c2c1` stands -0.782%; under `NC(=O)c1cccc2nc([C@H]3CCN(Cc4ccccc4F)C3)[nH]c12`, -3.45%.
As for `O=C(Nc1ccccc1Cn1cncn1)C1CCN(C2CCCCC2)C1` (stereo not given), the cytotoxicity at 70.5 h is -5.06%.
Take `c1ccc(OC[C@]23COC[C@H]2CN(Cc2ccoc2)C3)nc1`: the cytotoxicity at 70.5 h is -12.9%.
Under `O=C(c1cnc2c(cnn2C2CCCC2)c1)N1CCN(CCO)CC1` stands 2.02%.
As to `Cc1cccc(C2CCCN2C(=O)CCS(C)(=O)=O)c1C` (stereo not given), the cytotoxicity at 70.5 h came out at 18.6%.
Under `Cc1ccc(C(=O)N(Cc2ccccc2F)C2CC2)c(=O)[nH]1` stands 7.09%; under `CCc1ncncc1C(=O)NC1CCc2nc(C)cn2C1` (stereo not given), -1.22%; under `O=C(NC1CCCC1)c1nc2c(o1)CN(C(=O)CCO)C2`, -4.91%.
For `CCCn1nnnc1CSc1nccn1CC`, the cytotoxicity at 70.5 h is -0.835%.
In the case of `Cc1nc(CCCNC(=O)C2CC(=O)N(C3CCCC3)C2)sc1C` (stereo not given), the cytotoxicity at 70.5 h was -9.24%.
Under `COC(=O)c1occc1Cn1cc(Br)cn1` stands -2.08%.
Under `O=C(c1cccc(-c2ncc[nH]2)c1)N1CC[C@H](CO)[C@@H](O)C1` stands -2.73%.
As to `COc1ccc(N2CCC(N(C)C(C)C(=O)N(C)C)CC2)cc1` (stereo not given), the cytotoxicity at 70.5 h was found to be 15.1%.
Under `N#Cc1ccccc1OCCN1CCCC1Cn1cncn1` (stereo not given) stands 3.66%; under `N#Cc1cc(Cn2cnc(C3CCC3)cc2=O)ccc1F`, -15.4%.
Take `Cc1ccc(CNC(CCO)C2CCCCC2)nc1` (stereo not given): the cytotoxicity at 70.5 h is -1.61%.
With `CCOC(=O)N1CCN(CC(=O)Nc2nnc(C)s2)CC1` the figure was -6.46%; with `c1cnc(NC2COC3(CCN(Cc4ccoc4)CC3)C2)nc1` (stereo not given), -97.7%; with `COc1ccc(NC2(C(=O)N3CCn4cncc4C3)CCCC2)cc1`, -11.8%.
Under `Cc1ccc2nc(C(=O)N3CCC(CCn4cccn4)CC3)cn2c1` stands 16%; under `CC(C)CC(=O)N1CCC2(CC1)[C@@H]1CN(C(=O)N(C)C)C[C@@H]1C(=O)N2C`, -3.34%.
Consider `COc1ccc(NC(=O)CCC2CCCN(Cc3ncon3)C2)c(C)c1` (stereo not given), for which the cytotoxicity at 70.5 h is -4.69%.
With `O=C(c1ccncc1)N1CCC2(CCCN(c3ncc(F)cn3)C2)C1` (stereo not given), the cytotoxicity at 70.5 h is -2.34%.
With `NC(=O)C1CCN(C(=O)CCSCc2ccccc2)CC1` the figure was -5.5%; with `CCCNC(=O)CN1CCOC(c2ccc(Br)cc2)C1` (stereo not given), -6.67%.
With `COc1cccc(N2CCN(C(=O)CO)CC2=O)c1` the figure was -2.57%; with `CS(=O)(=O)N1CCOCC2(CCN(C(=O)c3cccnc3)CC2)C1`, -7.84%; with `CN(C)C(=O)NC1COC2(CCN(Cc3nccn3C)CC2)C1` (stereo not given), 2.06%.
Under `OCC1(CC2CC2)CCCN(Cc2cnc(N3CCOCC3)nc2)C1` (stereo not given) stands -5.42%.
As for `CCc1sc(-c2nnc(CNC(C)Cn3cc(C)cn3)o2)cc1C` (stereo not given), the cytotoxicity at 70.5 h turned out to be 5.1%.
As for `Cc1cnn(CC2CCCCN2CC(=O)N(C)Cc2ccc(C)o2)c1` (stereo not given), the cytotoxicity at 70.5 h is -2.13%.
Consider `CC(C)CNC(=O)C1=NOC2(CCN(Cc3ccc(C(C)C)cc3)C2)C1` (stereo not given), for which the cytotoxicity at 70.5 h is -1.12%.
For `COc1ccc(-c2nc(CC(=O)N(C)CCC#N)cs2)cc1OC`, the cytotoxicity at 70.5 h was found to be 5.07%.
With `CC(Cn1ccnc1)NCc1cc(Br)c2c(c1)OCO2` (stereo not given) the figure was 12.5%; with `COCC(=O)N1C[C@H]2CNC[C@@]2(C(=O)NCc2cccc3[nH]ccc23)C1`, -3.16%; with `O=C(CCn1cccn1)NCCOc1ncc(Cl)cc1Cl`, -10.6%.
With `CS(=O)(=O)c1ccc(CC(=O)N2CCN3CCNC(=O)C3C2)cc1` (stereo not given) the figure was -2.91%; with `Cc1nc(N(C)C)nc(NCCc2ccccn2)c1C`, -9.09%; with `CCN1CC2(CC1=O)CN(C(=O)C(C)C)CCN(S(C)(=O)=O)C2` (stereo not given), 19.5%.
On to `CC(NCC1CCN(CCO)CC1)c1ccc(C(F)(F)F)cc1` (stereo not given), for which the cytotoxicity at 70.5 h is 14%.
With `CC(C)(C)n1cc(CNc2ccc(CNS(C)(=O)=O)cc2)cn1` the figure was -8.49%; with `Cc1nnc([C@@H]2CC[C@@H]3[C@@H](CCN3S(=O)(=O)C3CC3)O2)o1`, -14%; with `Cc1nn(C)cc1-c1cc(C(F)(F)F)nc(NC2CCN(C)CC2)n1`, -4.19%.
Under `CCOc1cc(C(=O)N2CCCC(n3nc(C)nc3C)C2)ccn1` (stereo not given) stands -3.74%; under `CC(=O)NCCC(Cc1ccccc1)c1ccco1` (stereo not given), -13.4%; under `CC(C)N1CCC(CC(=O)NCC2OCCc3ccccc32)CC1` (stereo not given), -9.87%.
`CC1CN(Cc2ccccc2)CCCN1CCCS(C)(=O)=O` (stereo not given): the cytotoxicity at 70.5 h was -4.81%.
Turning to `CCc1cccc(NC(=O)CCN2CC=C(c3cnn(C)c3)CC2)c1`, the cytotoxicity at 70.5 h was -5.53%.
For the compound `N#Cc1ccsc1N1CCC(Sc2ccncc2)C1=O` (stereo not given), the cytotoxicity at 70.5 h was -7.07%.
Under `CC(C)(C)C(O)CN1CCN(CC(=O)NC2CCOCC2)CC1` (stereo not given) stands -7.28%.
On to `CC(C)c1nnc2n1CCN(CC(=O)N1CCc3ccccc3C1)C2`, for which the cytotoxicity at 70.5 h was 11.4%.
Under `CCc1noc(C)c1C(=O)NCc1c(C)nn(CCOC)c1C` stands -4.73%.
With `CCC[C@@H]1CN(Cc2ccc(C(F)(F)F)nc2)C[C@H]1C(=O)O` the figure was -8.04%.
With `O=C(c1n[nH]c2ccccc12)N1CCCC1c1noc(C2CC2)n1` (stereo not given) the figure was -17.4%; with `CC(C)(C#N)c1ccccc1CN1CCC(N2CCCC2=O)CC1`, 13.9%; with `CCC(=O)NCC(=O)NCC(C)(C)c1cccc(Br)c1`, -5.47%.
In the case of `CSc1nc2cc(C)n(CC(N)=O)c2c(=O)n1CC(C)C`, the cytotoxicity at 70.5 h stood at 0.849%.
For the compound `O[C@H]1COCCN(Cc2cccc3c2OCO3)C1`, the cytotoxicity at 70.5 h is -4.2%.
Take `CN(Cc1cc(C(C)(C)C)n[nH]1)C(=O)CCC(=O)NC1CCCC1`: the cytotoxicity at 70.5 h is -9.2%.
Under `Cc1nc(CN(Cc2ccccc2F)C2CCC2)no1` stands -3.66%; under `CC(O)CN1CCC(CN(C)CCC(=O)NC2CCCCC2)CC1` (stereo not given), 14.6%; under `COc1ccccc1N1CCC(CNCc2cccc(O)c2)C1` (stereo not given), 8.44%.
`O=C1CCN(C(=O)NCCc2c[nH]c3ccc(Cl)cc23)CCN1`: the cytotoxicity at 70.5 h was -8.44%.
As to `COCCC(=O)N1CCCC2(CCN(c3ccccc3)C2=O)C1` (stereo not given), the cytotoxicity at 70.5 h was -11%.
